One series has as its system M. tuberculosis. Put plainly: microbe, parasite or virus in culture. Type of series: cell-based. The following applies: Mycobacterium tuberculosis, read-out: MIC on solid medium.
In series [1] the test system is wild-type M. tuberculosis. Nature of the series: microbe, parasite or virus in culture. The following applies: for MIC: Mycobacterium tuberculosis. The format is cell-based, Mycobacterium tuberculosis.
The next series is described as follows: in vivo. Particulars: female, Balb/c, mouse; for AUC: po, 30 mg/kg.
Series [2] is described as follows: in vitro. The following applies: for CLint scaled at 0.5 µM: human, microsomes. The format is in vitro ADME, human. How it is done:
(§1) Compounds (0.5 µM) were incubated with 0.25 mg/mL liver microsomal proteins at pH 7.4 at 37 °C. Reactions were initiated with […] and samples taken at 0, 5, 10, 15, 20 and 30 min. The reaction was stopped by addition of 95% ACN/5% MeOH containing an internal standard. Samples were combined in compound groups of six pre-sorted by mono molecular weight and analyzed by LC/MS/MS. The peak area ratios (analyte peak area/IS peak area) were converted to % remaining using the area ratio at time 0 as 100%. The. half-life (T ½) and intrinsic clearance (mCLint) were calculated.

Series [3] is described as follows: in vitro. The format is in vitro ADME. Particulars: mouse, microsomes, pH 7.4. The procedure: as §1
The conditions of series [4]: mouse, in vivo.
The nature of series [5]: in vitro. The following applies: PAMPA. In general terms: PAMPA measures passive passage across an artificial lipid membrane.
The nature of series [6]: Critical aggregation concentration. The format is physicochemical.
In the next series the test system is M. tuberculosis H37Rv. Nature of the series: microbe, parasite or virus in culture. Type of series: cell-based. Particulars: Mycobacterium tuberculosis, 120 h.
Series [7] in a line: in vitro. The format is cell-based. The following applies: human. How it is done: HepG2 cells were seeded at 2000 cells per well in 384-well, black, clear bottom PDL coated plates in MEM medium supplemented with 10% FBS, 2 mM L-glutamine, 1 mM sodium pyruvate and incubated overnight at 37C, 5% CO2. Compounds were added and plates incubated for 72 h. Cell viability was measured using the CyQUANT® reagent and imaging on a ViewLux™ ultraHTS Microplate Imager. The IC20 and IC50 were calculated from dose response curves.

The mark [8] stands for this setting: Table 5, read-out: Wild-type MIC.

In brackets after ≈: the same amount, converted by molar mass. Entries after “also recorded” stand apart in the source; their conditions may differ. Where two headings read alike, the source gives them in different places.

On to `O=C(O)C(F)(F)F.c1cc(C2CCN(CC3CCCCC3)CC2)ccn1` [Molecule 4PP-32, 4-[1-(Cyclohexylmethyl)-4-piperidyl]pyridine, 2,2,2-trifluoroacetic acid salt], for which the MIC is 1.6 µM in the series with M. tuberculosis and > 20 µM in series [1] (120 h, read-out: MIC). Also, the “anti-tubercular activity (in words)” value in series [1] was “inactive”.
`O=C(NCCc1cc(Br)c(O)c(Br)c1)C1(c2ccc(F)cc2)CCC1` [PCB-31, N-(3,5-dibromo-4-hydroxyphenethyl)-1-(4-fluorophenyl)cyclobutane-1-carboxamide] had a half-life in “in vivo” (iv) of 12 min. Further, the area under the curve (AUC) in “in vivo” was determined as 259 ng·h/mL. The CLint scaled at 0.5 µM is 128 mL/min/kg in the series “in vitro [2]” (pH 7.4, human Clint) and 527 mL/min/kg in the series “in vitro [3]”. In addition, the “anti-tubercular activity (in words)” value in series [1] is recorded as “good anti-TB activity; also recorded: sub-micromolar”. For the same compound, in series [1] (120 h, read-out: MIC), the MIC worked out at 0.94 ± 0.23 µM (≈ 0.443 µg/mL). The “absorption (in words)” value in series [4] was “solubility-limited absorption”.
Take `O=C(NCCc1cccc(Br)c1)C1(c2ccc(F)cc2)CCC1` [PCB-19, N-(3-bromophenethyl)-1-(4-fluorophenyl)cyclobutane-1-carboxamide]: the MIC in the series with M. tuberculosis was found to be 0.63 µM (≈ 0.237 µg/mL); in series [1] (120 h, read-out: MIC), 2.3 ± 0.7 µM (≈ 0.865 µg/mL); in [1] (setting [8]), 2.3 µM (≈ 0.865 µg/mL). The “microsomal clearance / stability (in words)” value in the series “in vitro [2]” (human microsomes) is reported as “very poor microsomal stability”. Moreover, in the series “in vitro [2]” (pH 7.4, human Clint), the CLint scaled at 0.5 µM was 3920 mL/min/kg.
Consider `O=C(NCCc1cc(Br)c(O)c(Br)c1)C1(c2ccccc2)CCC1` [PCB-2, N-(3,5-dibromo-4-hydroxyphenethyl)-1-phenylcyclobutane-1-carboxamide], for which the apparent permeability (Papp) in “in vitro [5]” amounted to 87 ×10⁻⁶ cm/s. This compound gave a critical aggregation concentration in series [6] of 3.3 µM. In “in vivo”, the AUC came to 58 ng·h/mL. For the same compound, the intrinsic metabolic clearance (CLint scaled) at 0.5 µM in the series “in vitro [2]” (pH 7.4, human Clint) was 427 mL/min/kg; in the series “in vitro [2]” (pH 7.4, in vitro human unbound microsomal clearance Clint,u), 593 mL/min/kg; in “in vitro [3]” it was 1920 mL/min/kg. Further, the MIC worked out at 3.4 ± 0.6 µM (≈ 1.54 µg/mL) in [1] (120 h, read-out: MIC) and 3.4 µM (≈ 1.54 µg/mL) in [1] (read-out: MIC). The “Oral AUC” value in series [4] (female, Balb/c, po, 30 mg/kg) amounted to 58 ng·h/mL.
For the compound `COc1ccc(CCNC(=O)C2(c3ccccc3)CCC2)cc1Br` [PCB-1, N-(3-bromo-4-methoxyphenethyl)-1-phenylcyclobutane-1-carboxamide], the inhibition at 20 µM with M. tuberculosis H37Rv (read-out: % Inhibition Run 1) and with M. tuberculosis H37Rv (read-out: % Inhibition Run 2) was 100% in each case. The intrinsic metabolic clearance (CLint scaled) at 0.5 µM in “in vitro [2]” (pH 7.4, human Clint) is 1330 mL/min/kg. The compound further registered an IC20 at 72 h in the series “in vitro [7]” of 33 µM. Further, the MIC in series [1] (120 h, read-out: MIC) turned out to be 6.9 ± 1.7 µM (≈ 2.68 µg/mL); in [1] (read-out: MIC), 6.9 µM (≈ 2.68 µg/mL); in series [1] (read-out: MTB MIC), 6.9 µM (≈ 2.68 µg/mL).
With `O=C(NCCc1cccc(Br)c1)C1(c2ccccc2Br)CCC1` [PCB-21, N-(3-bromophenethyl)-1-(2-bromophenyl)cyclobutane-1-carboxamide], the MIC with M. tuberculosis amounted to 1.25 µM (≈ 0.546 µg/mL); in series [1] (120 h, read-out: MIC), 2 ± 0.5 µM (≈ 0.874 µg/mL); in series [1] (setting [8]), 2 µM (≈ 0.874 µg/mL). Also, in the series “in vitro [2]” (pH 7.4, human Clint), the CLint scaled at 0.5 µM is 13600 mL/min/kg.
Turning to `CNC(=O)N(O)C1c2cccc(F)c2Oc2ccsc21` (stereo not drawn) [HDU-2], the inhibition at 20 µM worked out at 99% with M. tuberculosis H37Rv (read-out: % Inhibition Run 1) and 100% with M. tuberculosis H37Rv (read-out: % Inhibition Run 2). Also, it took 42 µM to reach the 20% level in the series “in vitro [7]” (IC20 at 72 h). In addition, in series [1] (read-out: MTB MIC), the MIC is 19 µM (≈ 5.59 µg/mL).

As usually defined, the half-life is how long it takes for the measured level to halve. For orientation: AUC means the area under the concentration-time curve, a measure of exposure. Read a high AUC as more exposure. The term CLint scaled denotes the capacity of the preparation to metabolise the compound, expressed as a volume cleared per time. A high value points to faster metabolism. The term Papp denotes a coefficient for how fast a substance crosses the barrier. A low value points to poor permeation. Usually inhibition stands for the percentage by which the read-out fell short of the control. In general, IC20 refers to the point of the concentration-response curve where the effect stands at 20%. Low values mean an effect from little substance, high ones a need for much substance.

Values taken from publication PMC9435431, “Novel chemical entities inhibiting Mycobacterium tuberculosis growth identified by phenotypic high-throughput screening” (Scientific Reports, 2022).
